Structures can show the parent of a compound that is named as a salt.
Columns and labels:
CDK2 = CDK2 (Homo sapiens, UniProt P24941); settings: cited from earlier work
CDK6 = CDK6 (Homo sapiens, UniProt Q00534); set-up: key to the marks not given beside the values; settings: cited from earlier work
CDK7 = CDK7 (Homo sapiens, UniProt P50613); set-up: key: + is used to indicate the potency of the inhibitor; ++++ > +++ > ++ > +; + is used to indicate the potency of the inhibitor; ++++ > +++ > ++ > +; + is used to indicate the potency of the inhibitor; ++++ > +++ > ++ > +; + is used to indicate the potency of the inhibitor; ++++ > +++ > ++ > +; ◯ refers to compounds with inhibitory effects on the related isoform, but without specific value; settings: cited from earlier work
CDK3 = CDK3 (Homo sapiens, UniProt Q00526); settings: cited from earlier work
CDK1 = CDK1 (Homo sapiens, UniProt P06493); settings: cited from earlier work
CDK4 = CDK4 (Homo sapiens, UniProt P11802); settings: cited from earlier work
[1] = tested on: serine phosphorylation of CHI3L1 in U87 cells; assay: Co-IP/Immunoblot of CHI3L1 phosphorylation in U87 cells; format: cell-based; settings: flavopiridol 50 nM unless otherwise indicated, time-dependent and dose-dependent
Experimental: U87 cells that endogenously express all components of chitosome were subjected to Co-IP/Immunoblot assays after Pan-CDK inhibitor flavopiridol treatment. Flavopiridol was used at 50 nM unless otherwise indicated. Hr, hours.

[2] = tested on: ACE2, TMPRSS2, CTSL, and FURIN mRNA in Calu-3 lung epithelial cells; assay: RT-PCR of basal and CHI3L1 regulated expression in Calu-3 cells transfected with CHI3L1 cDNA, with flavopiridol; format: cell-based, human; settings: 24 hours
Experimental: After transfection of the cells with empty vector (pcDNA) or full length CHI3L1 cDNA, the Calu-3 cells were incubated with flavopiridol (25 nM) or its vehicle control for 24 hours. Levels of mRNA encoding ACE2 (top left), TMPRSS2 (top right), CTSL (bottom left), and FURIN (bottom right) were assessed via RT-PCR. *p<0.05; **p<0.01 (Student's t-test).
(§1) Total cellular RNA was obtained using TRIzol reagent (ThermoFisher Scientific) followed by RNA extraction using RNeasy Mini Kit (Qiagen, Germantown, Md.) according to the manufacturer's instructions. mRNA was measured and used for real time (RT)-PCR as described previously.^55,56 The primer sequences used in these studies are summarized in Table 1. Ct values of the test genes were normalized to the internal housekeeping gene β-actin.
The next study assessed whether the inhibition of CHI3L1 phosphorylation wound result in similar effects observed with CHI3L1 inhibitors on the levels of mRNA encoding ACE2 and spike activating proteases (SAPs), namely FURIN, TMPRSS2, and CTSL, in Calu-3 cells (described in Example 1).

CDK9 = CDK9 (Homo sapiens, UniProt P50750); set-up: key: + is used to indicate the potency of the inhibitor; ++++ > +++ > ++ > +; + is used to indicate the potency of the inhibitor; ++++ > +++ > ++ > +; + is used to indicate the potency of the inhibitor; ++++ > +++ > ++ > +; + is used to indicate the potency of the inhibitor; ++++ > +++ > ++ > +; ◯ refers to compounds with inhibitory effects on the related isoform, but without specific value; settings: cited from earlier work
CDK8 = CDK8 (Homo sapiens, UniProt P49336); set-up: key: + is used to indicate the potency of the inhibitor; ++++ > +++ > ++ > +; + is used to indicate the potency of the inhibitor; ++++ > +++ > ++ > +; + is used to indicate the potency of the inhibitor; ++++ > +++ > ++ > +; + is used to indicate the potency of the inhibitor; ++++ > +++ > ++ > +; ◯ refers to compounds with inhibitory effects on the related isoform, but without specific value; settings: cited from earlier work
[3] = tested on: ACE2, TMPRSS2, and CTSL mRNA in normal human small airway epithelial cells (HSAEC); assay: qRT-PCR of mRNA levels in HSAEC incubated with rhCHI3L1; format: cell-based; settings: rhCHI3L1 500 ng/mL, 24 hours
Experimental: as §1
In the present study, normal HSAEC were incubated with 0, 100 ng/mL, or 500 ng/mL of rhCHI3L1 for 24 hours at 37° C. The levels of mRNA encoding ACE2, TMPRSS2, and CTSL were assessed via qRT-PCR and expressed in relationship to GAPDH controls.

[4] = tested on: ACE2, TMPRSS2, and CTSL mRNA in A549 cells; assay: qRT-PCR of mRNA levels in A549 cells incubated with rhCHI3L1; format: cell-based, human; settings: 24 hr
Experimental: as §1
In the first study, A549 cells were incubated with rhCHI3L1 from a commercial source (R&D Inc.) and rhCHI3L1 generated at Brown University (Brown). The cells were incubated for 24 hr with stimulation of rhCHI3L1 (500 ng/mL) at 37° C. mRNA was then extracted and the levels of mRNA for ACE2 and CTSL were evaluated by real time qRT-PCR and compared to vehicle controls. Levels were expressed in relationship to GAPDH controls.
In the next study, A549 cells were incubated with 0, 250 ng/mL, or 500 ng/mL of rhCHI3L1 for 24 hr with stimulation of rhCHI3L1 at 37° C. mRNA was then extracted and the levels of mRNA encoding ACE2, TMPRSS2, and CTSL were assessed via qRT-PCR.

[5] = tested on: spike protein (S)-containing pseudovirus (D614 and G614 variants); format: cell-based; settings: Calu-3 cells, rCHI3L1 24 hours before pseudovirus
[6] = tested on: ACE2, FURIN, TMPRSS2, and CTSL mRNA in Calu-3 lung epithelial cells; assay: RT-PCR of basal and rhCHI3L1 regulated expression in Calu-3 cells with FRG or KSM; format: cell-based, human; settings: Calu-3 cells, rhCHI3L1 250 ng/mL, 24 hours
Experimental: Calu-3 cells were incubated with vehicle or rhCHI3L1 for 24 hours in the presence of KSM (250 ng/mL) or its vehicle control (PBS). Levels of mRNA encoding ACE2 (top left), FURIN (top right), TMPRSS2 (bottom left), and CTSL (bottom right) were assessed via RT-PCR. KSM diminished the levels of basal ACE2 expression and potently ameliorated the ability of rhCHI3L1 to stimulate ACE2 mRNA accumulation.
as §1
Calu-3 cells were incubated with vehicle or 250 ng/mL rhCHI3L1 for 24 hours in the presence of 250 ng/mL FRG or its isotype control (isotype) at 37° C. Levels of mRNA encoding ACE2, FURIN, TMPRSS2, and CTSL were assessed via RT-PCR.
Kasugamycin (KSM) is an inhibitor of CHI3L1 and chitinase 1. The present study assessed the effects of KSM on the levels of mRNA encoding ACE2, FURIN, TMPRSS2, and CTSL in Calu-3 cells.

[7] = Calu-3 cells, pcDNA or CHI3L1 cDNA, flavopiridol 25 nM

Sequence of CDK7 (P51946 whole entry, canonical isoform): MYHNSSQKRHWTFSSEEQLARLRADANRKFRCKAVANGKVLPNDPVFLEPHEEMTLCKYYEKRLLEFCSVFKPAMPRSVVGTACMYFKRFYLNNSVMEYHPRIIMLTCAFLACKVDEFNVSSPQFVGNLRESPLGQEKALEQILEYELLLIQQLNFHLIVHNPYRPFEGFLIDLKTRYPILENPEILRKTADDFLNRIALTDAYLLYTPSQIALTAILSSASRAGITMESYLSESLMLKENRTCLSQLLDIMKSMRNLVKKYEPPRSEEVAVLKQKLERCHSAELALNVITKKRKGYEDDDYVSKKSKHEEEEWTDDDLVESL
Sequence of CDK7 (P50613 whole entry, canonical isoform): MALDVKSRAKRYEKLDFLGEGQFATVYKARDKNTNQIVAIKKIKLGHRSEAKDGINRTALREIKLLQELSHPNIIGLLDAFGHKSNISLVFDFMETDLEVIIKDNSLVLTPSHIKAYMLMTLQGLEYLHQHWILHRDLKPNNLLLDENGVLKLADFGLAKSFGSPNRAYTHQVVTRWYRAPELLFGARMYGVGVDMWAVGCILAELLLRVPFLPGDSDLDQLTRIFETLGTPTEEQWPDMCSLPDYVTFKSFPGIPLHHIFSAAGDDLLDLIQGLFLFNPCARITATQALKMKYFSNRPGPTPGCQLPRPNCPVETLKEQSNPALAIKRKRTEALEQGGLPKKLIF
Sequence of CDK7 (P51948 whole entry, further chain, canonical isoform): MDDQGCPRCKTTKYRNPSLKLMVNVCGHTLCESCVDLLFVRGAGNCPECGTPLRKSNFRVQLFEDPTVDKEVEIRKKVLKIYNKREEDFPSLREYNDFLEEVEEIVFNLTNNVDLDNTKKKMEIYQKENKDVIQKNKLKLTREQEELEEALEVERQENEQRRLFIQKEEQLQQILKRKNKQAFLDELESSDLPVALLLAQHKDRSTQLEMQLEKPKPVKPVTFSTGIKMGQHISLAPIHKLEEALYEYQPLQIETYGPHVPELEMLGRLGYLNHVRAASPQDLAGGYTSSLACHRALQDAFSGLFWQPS
Sequence of CDK1 (P06493 whole entry, species assumed): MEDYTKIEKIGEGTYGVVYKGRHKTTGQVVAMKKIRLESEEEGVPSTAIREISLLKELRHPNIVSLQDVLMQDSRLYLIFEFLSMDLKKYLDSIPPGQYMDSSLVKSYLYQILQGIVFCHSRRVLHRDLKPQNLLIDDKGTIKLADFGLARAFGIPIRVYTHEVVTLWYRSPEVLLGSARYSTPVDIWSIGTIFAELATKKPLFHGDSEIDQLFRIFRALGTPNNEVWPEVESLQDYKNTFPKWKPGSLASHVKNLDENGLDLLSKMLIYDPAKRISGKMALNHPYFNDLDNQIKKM
Sequence of CDK1 (P14635 whole entry partner, species assumed): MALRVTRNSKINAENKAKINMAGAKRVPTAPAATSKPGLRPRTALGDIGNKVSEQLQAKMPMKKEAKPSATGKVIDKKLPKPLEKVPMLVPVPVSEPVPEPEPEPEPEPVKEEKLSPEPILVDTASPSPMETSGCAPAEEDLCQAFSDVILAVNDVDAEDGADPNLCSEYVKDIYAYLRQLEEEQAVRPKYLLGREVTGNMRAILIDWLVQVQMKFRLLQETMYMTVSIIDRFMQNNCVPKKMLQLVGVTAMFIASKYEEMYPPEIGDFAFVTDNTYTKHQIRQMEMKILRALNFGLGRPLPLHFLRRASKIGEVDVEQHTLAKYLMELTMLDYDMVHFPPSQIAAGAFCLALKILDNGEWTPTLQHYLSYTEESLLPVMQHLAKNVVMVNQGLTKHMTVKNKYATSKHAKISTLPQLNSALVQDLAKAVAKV
Sequence of CDK6 (Q00534 whole entry, canonical isoform): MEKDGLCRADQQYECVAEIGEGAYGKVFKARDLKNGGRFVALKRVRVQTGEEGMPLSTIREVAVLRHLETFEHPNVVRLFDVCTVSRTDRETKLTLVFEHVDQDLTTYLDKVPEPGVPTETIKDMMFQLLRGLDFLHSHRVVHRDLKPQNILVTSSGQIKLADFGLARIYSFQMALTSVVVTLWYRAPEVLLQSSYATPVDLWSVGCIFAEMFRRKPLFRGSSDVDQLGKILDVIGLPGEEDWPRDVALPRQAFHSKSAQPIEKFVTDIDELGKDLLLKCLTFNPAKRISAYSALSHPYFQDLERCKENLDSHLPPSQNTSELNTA
Sequence of CDK4 (P11802 whole entry, species assumed): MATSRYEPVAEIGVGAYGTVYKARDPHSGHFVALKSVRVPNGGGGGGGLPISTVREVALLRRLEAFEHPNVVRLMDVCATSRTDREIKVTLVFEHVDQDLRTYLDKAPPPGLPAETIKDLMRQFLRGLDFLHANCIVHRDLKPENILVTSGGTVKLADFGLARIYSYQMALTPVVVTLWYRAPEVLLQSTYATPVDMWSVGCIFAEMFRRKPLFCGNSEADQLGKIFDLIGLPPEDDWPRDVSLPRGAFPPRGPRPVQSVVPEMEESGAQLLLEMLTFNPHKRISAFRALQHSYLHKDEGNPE
Sequence of CDK4 (P24385 whole entry partner, species assumed): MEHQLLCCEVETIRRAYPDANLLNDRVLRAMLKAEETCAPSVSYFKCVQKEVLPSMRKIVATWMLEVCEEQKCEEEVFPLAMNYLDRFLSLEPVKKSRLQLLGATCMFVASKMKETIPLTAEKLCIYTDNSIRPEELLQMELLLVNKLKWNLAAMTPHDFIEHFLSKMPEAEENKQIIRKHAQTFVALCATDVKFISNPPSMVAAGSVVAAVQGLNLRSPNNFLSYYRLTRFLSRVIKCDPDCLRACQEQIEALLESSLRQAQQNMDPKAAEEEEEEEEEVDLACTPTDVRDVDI
Sequence of CDK9 (O60563 whole entry, canonical isoform): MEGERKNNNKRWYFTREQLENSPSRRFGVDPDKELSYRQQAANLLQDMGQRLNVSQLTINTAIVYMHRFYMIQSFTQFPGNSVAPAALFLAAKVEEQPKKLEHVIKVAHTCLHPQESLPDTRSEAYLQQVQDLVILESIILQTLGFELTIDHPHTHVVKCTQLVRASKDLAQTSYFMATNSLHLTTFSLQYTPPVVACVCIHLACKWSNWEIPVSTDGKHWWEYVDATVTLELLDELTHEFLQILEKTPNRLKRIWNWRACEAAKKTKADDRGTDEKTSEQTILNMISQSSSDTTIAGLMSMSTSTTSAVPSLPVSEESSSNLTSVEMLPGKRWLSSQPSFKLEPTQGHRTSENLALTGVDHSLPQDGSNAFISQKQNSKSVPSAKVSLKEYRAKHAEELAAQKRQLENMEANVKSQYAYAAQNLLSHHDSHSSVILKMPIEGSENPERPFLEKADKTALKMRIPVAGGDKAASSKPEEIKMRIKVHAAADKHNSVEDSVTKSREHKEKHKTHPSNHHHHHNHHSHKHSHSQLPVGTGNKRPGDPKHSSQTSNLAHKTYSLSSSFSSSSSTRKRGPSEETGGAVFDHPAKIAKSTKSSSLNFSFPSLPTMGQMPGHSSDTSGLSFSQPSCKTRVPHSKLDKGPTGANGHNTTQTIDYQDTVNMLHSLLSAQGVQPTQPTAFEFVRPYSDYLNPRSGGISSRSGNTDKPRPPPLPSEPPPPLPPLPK
Sequence of CDK9 (P50750 whole entry, canonical isoform): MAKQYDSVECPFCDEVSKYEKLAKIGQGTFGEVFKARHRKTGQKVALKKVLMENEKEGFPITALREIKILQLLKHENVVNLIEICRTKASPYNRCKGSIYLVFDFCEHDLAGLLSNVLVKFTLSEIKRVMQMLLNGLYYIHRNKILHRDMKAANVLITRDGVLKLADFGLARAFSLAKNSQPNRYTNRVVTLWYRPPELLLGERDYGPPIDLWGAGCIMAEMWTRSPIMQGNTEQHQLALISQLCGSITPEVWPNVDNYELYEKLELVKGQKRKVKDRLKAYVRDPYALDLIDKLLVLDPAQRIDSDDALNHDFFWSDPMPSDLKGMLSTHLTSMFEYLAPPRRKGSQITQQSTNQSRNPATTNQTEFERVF
Sequence of CDK3 (Q00526 whole entry): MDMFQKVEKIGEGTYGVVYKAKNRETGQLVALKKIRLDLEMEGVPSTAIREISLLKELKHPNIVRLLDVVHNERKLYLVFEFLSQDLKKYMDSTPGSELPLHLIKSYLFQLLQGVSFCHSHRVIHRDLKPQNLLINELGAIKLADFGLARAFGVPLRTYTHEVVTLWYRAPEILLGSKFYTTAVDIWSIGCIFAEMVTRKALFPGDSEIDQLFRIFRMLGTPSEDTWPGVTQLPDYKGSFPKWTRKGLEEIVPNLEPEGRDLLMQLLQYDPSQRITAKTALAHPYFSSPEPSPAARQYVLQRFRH
Sequence of CDK3 (P24864 whole entry, further chain): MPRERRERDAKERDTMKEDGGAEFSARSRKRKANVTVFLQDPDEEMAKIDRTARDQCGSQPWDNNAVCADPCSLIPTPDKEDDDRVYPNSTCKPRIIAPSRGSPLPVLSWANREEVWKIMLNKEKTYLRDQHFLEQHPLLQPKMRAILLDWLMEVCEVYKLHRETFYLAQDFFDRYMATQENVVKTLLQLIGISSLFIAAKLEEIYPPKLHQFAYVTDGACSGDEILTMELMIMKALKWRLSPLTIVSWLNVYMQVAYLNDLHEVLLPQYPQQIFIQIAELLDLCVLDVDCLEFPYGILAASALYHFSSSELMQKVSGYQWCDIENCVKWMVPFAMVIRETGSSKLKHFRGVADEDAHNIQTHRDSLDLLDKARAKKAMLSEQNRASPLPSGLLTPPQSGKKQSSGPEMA

CN1CC[C@H](c2c(O)cc(O)c3c(=O)cc(-c4ccccc4Cl)oc23)[C@H](O)C1 [Flavopiridol HCl, Flavopiridol Hydrochloride]
Inhibitory potency CDK2 (CDK2): +++
Inhibitory potency CDK6 (CDK6): +++
Inhibitory potency CDK7 (CDK7): +
Inhibitory potency CDK3 (CDK3): +
Inhibitory potency CDK1 (CDK1): +++
Inhibitory potency CDK4 (CDK4): +++

CN1CC[C@H](c2c(O)cc(O)c3c(=O)cc(-c4ccccc4Cl)oc23)[C@H](O)C1 [Flavopiridol]
Inhibitory potency CDK2 (CDK2): +++
Inhibitory potency CDK6 (CDK6): ++
Inhibitory potency CDK7 (CDK7): +
serine phosphorylation of CHI3L1 [1]: blocked
Inhibitory potency CDK1 (CDK1): +++
ability of CHI3L1 to stimulate ACE2 mRNA accumulation ([2]; Calu-3 cells transfected with full length CHI3L1 cDNA, flavopiridol 25 nM): potently inhibited
levels of basal ACE2 expression ([2]; Calu-3 cells, empty vector (pcDNA), flavopiridol 25 nM vs vehicle): diminished
basal and CHI3L1-stimulated expression of CTSL [2, 7]: potently decreased
basal and CHI3L1-stimulated expression of FURIN [2, 7]: potently decreased
basal and CHI3L1-stimulated expression of TMPRSS2 [2, 7]: potently decreased
Inhibitory potency CDK4 (CDK4): +++

CC(C)c1c2cc(-c3ccnc(NC4CCC(NC5CCOCC5)CC4)n3)ccc2nn1C (stereo not drawn) [LY2857785]
Inhibitory potency CDK9 (CDK9): +++
Inhibitory potency CDK8 (CDK8): +++
Inhibitory potency CDK7 (CDK7): +

rhCHI3L1: recombinant human CHI3L1 from a commercial source (R&D Inc.) or generated at Brown University
levels of mRNA encoding ACE2 [3]: significantly upregulated
levels of mRNA encoding CTSL [3]: significantly upregulated
levels of mRNA encoding TMPRSS2 [3]: significantly upregulated
levels of mRNA encoding ACE2 ([4]; rhCHI3L1 0, 250 or 500 ng/mL): significantly upregulated
levels of mRNA encoding CTSL ([4]; rhCHI3L1 0, 250 or 500 ng/mL): significantly upregulated
levels of mRNA encoding TMPRSS2 ([4]; rhCHI3L1 0, 250 or 500 ng/mL): significantly upregulated
levels of mRNA encoding ACE2 ([4]; rhCHI3L1 500 ng/mL, vs vehicle): significantly upregulated
levels of mRNA encoding cathepsin L (CTSL) ([4]; rhCHI3L1 500 ng/mL, vs vehicle): significantly upregulated
cellular integration of S proteins (GFP expression) [5]: stimulated
levels of mRNA encoding ACE2 [6]: significantly upregulated
levels of mRNA encoding CTSL [6]: significantly upregulated
levels of mRNA encoding FURIN [6]: significantly upregulated
levels of mRNA encoding TMPRSS2 [6]: significantly upregulated

Reference: patent US20230183323A1 (BROWN UNIVERSITY, priority 2020, published 2023)
